Test results as given in patent publication US9464291B2, “Methods and compositions for the treatment of cancer” (University of South Alabama, priority 2012, dated 2016).

Tested on: MC3T3-E1 cells
Experiment: Osteoblast differentiation (ALP) and mineralization (Alizarin Red S), MC3T3-E1
Format: cell-based, murine
Conditions: 100 nM ligand in DM
Procedure: The procedure for differentiation of osteoblasts was standardized. MC3T3-E1 cells were cultured in the presence of ascorbic acid and β-glycerophosphate. Mineralization was examined by Alizarin RedS staining (Ueno, A., et al. (2001). Matrix Biol 20, 347-355; Lee, Y. K., et al. (2004). J Biomed Mater Res A 69, 188-195; Duarte, W. R., et al. (2003). S100A4: a novel negative regulator of mineralization and osteoblast differentiation. J Bone Miner Res 18, 493-501). Referring to FIG. 13 and FIG. 14, differentiation was evident by intense red staining in presence of differentiation medium and in differentiation medium containing SHH compared to the control, growth medium. This was also evident in the intensity of absorbance and in the numbers of mineralized nodules formed (counted under the microscope) (FIG. 15).
Induction of osteoblastic and osteoclastic differentiation—In order to test the effect of conditioned medium from the tumor cells on osteoblast differentiation, a double-strength differentiation medium (DM) was formulated for MC3T3 E1 Sc-14 cells. […] Osteoblast differentiation was assessed by alkaline phosphatase (ALP) activity assay in the perspective of total phosphatase. The functional assessment of osteoblast mineralization was quantified by staining with Alizarin Red S and scoring the number of mineralized nodules.

With “SHH: recombinant Sonic hedgehog ligand (R & D Systems)” the “osteoblast differentiation (ALP activity)” value was “stimulated differentiation” and the “numbers of mineralized nodules” value (14 days) was “significant increase (p<0.05)”.
